Converted amounts (≈) assume the structure as drawn.
How the values were obtained:
[1] = Kinetic aqueous solubility by nephelometry; type: physicochemical; conditions: phosphate-buffered saline, aqueous buffer, kinetic from dmso stock, PBS pH 7.4, 1% DMSO, 25°C, logS = decadic logarithm of molar solubility [M]
Experimental: (§1) Phosphate-buffered saline pH 7.4 was prepared according to the European Pharmacopeia 10.4 by dissolving 2.38 g sodium monohydrogen phosphate dodecahydrate, 0.19 g potassium dihydrogen phosphate and 8.0 g sodium chloride in demineralised water (to a total volume of 1000 mL). The pH was adjusted to a value of 7.4 with hydrochloric acid. The buffer was filtered through a 0.45 μm membrane filter (Chromafil® Xtra PES-45/25) before use.
The kinetic aqueous solubility was determined by nephelometry. The measurements were performed on the NEPHELOstar Plus, with accompanying software Omega 5.11 and MARS 3.20 (BMG LABTECH, Ortenberg, Germany). Generally, 2 dilution series of 1–2 weighed portions of each substance were measured. First, stock solutions of the compounds were prepared in DMSO. A series of dilutions in DMSO were prepared from one stock solution to obtain at least 3 concentrations below and 3 concentrations above the precipitation point in the measured series. The specific concentrations were usually measured as duplicates.
The 96-well plate (Corning UV transparent flat-bottom 96-well plate, Corning Incorporated, Kennenbunk, ME, USA) was inspected for contamination and scratches and measured without samples prior to the solubility measurement of the compounds. 198 μL of phosphate-buffered saline pH 7.4 was placed in a 96 well plate for each well to be measured. 2 μL of a DMSO solution was added and immediately mixed by moving the pipette plunger. This solution either contained no substance—and served as a blank for the measurement (3 wells)—or the respective DMSO dilution of the substance (2–4 wells). The concentration of the solvent DMSO in each measured solution was 1%. The concentration of the compound corresponds to a 1:100 dilution compared to the respective DMSO dilution. The well plate bottom was cleaned with a lint-free cloth and compressed air and inspected for impurities before measurement. After shaking at 500 rpm for 10 s (double orbital), the measurement was carried out in the nephelometer with the laser intensity set to 80% and beam focus of 2.5 mm at a temperature of 25°C.
The obtained measuring points, relative nephelometric units (RNU) per compound concentration, were used to model two straight lines: one straight line with constant low readings and slope → 0 characterises the concentration range where no precipitation has taken place yet; The other straight line has a steep slope and increase of the RNU per concentration and characterises the concentrations at which precipitation takes place in the respective sample vessels.
The evaluation was carried out by calculating the two straight lines and their point of intersection. Outliers and values in a saturation range for the kick-off curve (usually >800 kRNU) were not used to create the straight lines and are listed separately in the evaluation file. […] The x-value of the intersection of the two straight lines represents the kinetic solubility. The results of two dilution series are additionally indicated as range (in brackets). For measurements of 3 or more series, a mean value with standard deviation is provided. The logS value describes the decadic logarithm of the molar solubility: logS (molar solubility [M]).

[2] = Thermodynamic aqueous solubility, shake-flask method and HPLC-UV; type: physicochemical; conditions: phosphate-buffered saline, aqueous buffer, thermodynamic from solid, PBS pH 7.4, 25°C, up to 72 h, HPLC-UV, logS of molar solubility [M]
Experimental: as §1
The thermodynamic aqueous solubility was determined by a miniaturised shake-flask method. […] A negative control with the buffer (400 μL) was incubated for every time point and measured likewise. After incubation for 24 h, 48 h and 72 h, the vials were checked for undissolved compound; then the filter plunger was punched into the vial for filtration. […] The calibration curve was obtained from at least three dilutions and five measuring points from a DMSO stock solution of the respective compound.

[3] = molecular target: trypanothione synthetase of L. infantum (LiTryS) (Leishmania infantum, UniProt A4I2Z3); experiment: TryS activity screening assay on recombinant LiTryS; type: biochemical; conditions: for activity at 30 µM: read-out: LiTryS activity [% at 30 μM]; for IC50: recombinant TryS, errors 2 SD, read-out: LiTryS inhibition [IC50
trypanothione synthetase of L. infantum (LiTryS), sequence (A4I2Z3 entry or part of it): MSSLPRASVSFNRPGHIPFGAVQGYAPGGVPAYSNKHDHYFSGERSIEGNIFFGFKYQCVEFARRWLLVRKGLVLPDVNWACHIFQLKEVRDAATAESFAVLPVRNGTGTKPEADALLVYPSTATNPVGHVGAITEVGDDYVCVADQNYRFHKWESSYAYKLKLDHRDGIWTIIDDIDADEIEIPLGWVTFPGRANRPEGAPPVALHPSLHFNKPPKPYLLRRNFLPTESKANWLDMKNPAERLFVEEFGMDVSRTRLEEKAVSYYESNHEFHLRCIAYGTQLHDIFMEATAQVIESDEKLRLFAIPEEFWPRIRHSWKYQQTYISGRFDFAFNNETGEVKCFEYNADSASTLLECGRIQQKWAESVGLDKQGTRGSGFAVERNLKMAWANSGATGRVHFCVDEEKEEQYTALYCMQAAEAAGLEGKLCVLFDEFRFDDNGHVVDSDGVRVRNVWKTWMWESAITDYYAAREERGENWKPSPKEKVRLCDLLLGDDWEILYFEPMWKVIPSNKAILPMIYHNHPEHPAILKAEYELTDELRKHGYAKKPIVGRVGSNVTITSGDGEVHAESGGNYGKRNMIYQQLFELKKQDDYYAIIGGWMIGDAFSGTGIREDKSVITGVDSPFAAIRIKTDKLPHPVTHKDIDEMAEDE
In short: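 N-His-tagged TryS from E. coli, purified by IMAC and SEC; end-point reaction with 150 μM ATP, 2 mM Spd, GSH 0.05 mM (TbTryS) or 0.25 mM (LiTryS), enzyme 3*10^−5 (TbTryS) or 2*10^−5 (LiTryS) μmol*min^-1*mL^-1. Stopped after 15 min with BIOMOL GREEN; A650 activity relative to blank-corrected DMSO control.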

[4] = test system: trypanothione synthetase of T. b. brucei (TbTryS); experiment: TryS activity screening assay on recombinant TbTryS; type: biochemical; conditions: % activity at 30 μM compound, errors 2 SD
Experimental: TryS from different trypanosomatids was produced in recombinant form with an N-terminal His-tag. The constructs pET-15b TbTryS and pET-28c(+)LiTryS were used to express TryS of T. b. brucei 427 (MITat1.4, GenBank accession protein id CAC87573.1), and L. infantum JPCM5 (GenBank accession protein id CAM69145.1). E. coli strain BL21 (DE3) served as the expression host. For TbTryS, the cells were cultured in a medium based in Terrific Broth and induction with isopropyl 1-thio-β-D-galactopyranoside (IPTG), while for LiTryS, the cells were cultured in ZYM-5052 auto-induction medium. For a detailed description of the expression, see Benítez et al.. The purification was performed by immobilised metal affinity chromatography in a HisTrap Fast Flow column (GE Healthcare) followed by size exclusion chromatography. […] The fractions containing recombinant TryS with ≥95% purity were pooled and concentrated to >10 mg protein/mL using a 10 kDa cut-off Amicon filter (Millipore, Billerica, CA). Glycerol was added at a final concentration of 40% (v/v). The samples were stored at -80°C. Enzyme purity and activity were assessed by SDS-PAGE (12%) under reducing conditions and by the end-point TryS assay (see TryS activity screening assay), respectively. Protein concentration was determined using the bicinchoninic acid assay with bovine serum albumin as standard. The protocols yielded 25–30 mg TbTryS or LiTryS per litre of culture medium and homogeneous specific activity.
For all TryS, ATP was used at 150 μM because of a high background signal at higher concentrations and Spd fixed at 2 mM, in agreement with the intracellular levels calculated from data reported in the literature for trypanosomatids. GSH was adjusted to 0.05 and 0.25 mM for TbTryS and LiTryS, respectively, to avoid substrate inhibition or to approach physiological concentrations. […] Microtiter plate wells were loaded with 5 μL of the test compound, DMSO (reaction control) or a TryS specific inhibitor (inhibition control) and 40 μL of MM solution. The reactions were then started by adding 5 μL of TryS (2 and 3*10^−5 μmol*min^-1*mL^-1 for LiTryS and TbTryS, respectively) and stopped after 15 min with 200 μL BIOMOL® GREEN reagent (Enzo Life Sciences). The compounds used as inhibition control were added at concentrations that inhibited 50% TryS activity: 30 μM and 150 nM MOL2008 for TbTryS and LiTryS, respectively. Blanks were prepared for each condition by adding 5 μL of screening reaction buffer instead of the enzyme. The TryS activity is calculated as follows: TrySactivity%=A650nmCi-A650nmCiB/A650nmE-A650nmEB*100%
A650 nm Ci is the mean absorbance at 650 nm for the reaction test with compound I (Ci), A650 nm CiB is the mean absorbance at 650 nm for the blank control with compound I (CiB), A650 nm E is the mean absorbance at 650 nm for the reaction control with DMSO (E) and A650 nm EB is the mean absorbance at 650 nm for the blank control with DMSO (EB). The errors were expressed as 2 standard deviations (SD), SD estimated as σ^n−1.

| Compound | solubility kinetic at 10 s [1] [M] | solubility thermodynamic at 72 h [2] [M] | activity at 30 µM [3] [%] | IC50 [3] [nM] | TbTryS activity [% at 30 μM] [4] [%] |
| --- | --- | --- | --- | --- | --- |
| CNCCNC(=O)CN1C(=O)Cc2c([nH]c3ccc(I)cc23)-c2ccc(Cl)cc21 [1f, 2-(3-Chloro-9-iodo-6-oxo-7,12-dihydrobenzo[2,3]azepino[4,5-b]indol-5(6H)-yl)-N-[2-(methylamino)ethyl]acetamide] | 2.95e-05 (≈ 15.4 µg/mL) | 1.7e-06 (≈ 0.888 µg/mL) | 2.2 ± 0.6 | 70 ± 30 | 82.9 ± 6.5 |
| CNCCNC(=O)CN1C(=O)Cc2c([nH]c3ccc(C(F)(F)F)cc23)-c2ccc(Cl)cc21 [1h, 2-(3-Chloro-6-oxo-9-trifluoromethyl-7,12-dihydrobenzo[2,3]azepino[4,5-b]indol-5(6H)-yl)-N-[2-(methylamino)ethyl]acetamide] | 4.27e-05 (≈ 19.8 µg/mL) | < 2.95e-07 | 0 | 60 ± 40 | 87.8 ± 4.6 |
| CNCCNC(=O)CN1C(=O)Cc2c([nH]c3ccc(Cl)cc23)-c2ccc(Cl)cc21 [1g, 2-(3,9-Dichloro-6-oxo-7,12-dihydrobenzo[2,3]azepino[4,5-b]indol-5(6H)-yl)-N-[2-(methylamino)ethyl]acetamide] | 4.79e-05 (≈ 20.6 µg/mL) | 1.29e-05 (≈ 5.56 µg/mL) | 2.2 | 390 ± 60 | 82.8 ± 5.9 |
